Laboratory results from ChEMBL document CHEMBL1201862, “PubChem BioAssay data set” (2004).
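Five concentrations, 48 hours, 96-well plates. Here, GI50 denotes the concentration required for 50% inhibition of growth.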 Calls of active or inactive are those of the source. Cut-off read from the data, not from the text of the source: active = GI50 up to about 1.1 µM and inactive = higher.

Columns and labels:
Assay in all cases: growth of human tumour cells (NCI), 48 h
HCC 2998 = system: HCC 2998
OVCAR-8 = system: OVCAR-8
OVCAR-3 = system: OVCAR-3
UACC-257 = system: UACC-257
A549 = system: A549
ACHN = system: ACHN
SN12C = system: SN12C
Malme-3M = system: Malme-3M
NCI-H226 = system: NCI-H226
KM12 = system: KM12
SF-295 = system: SF-295
LOX IMVI = system: LOX IMVI
DU-145 = system: DU-145
NCI-H460 = system: NCI-H460
HOP-62 = system: HOP-62
HCT-15 = system: HCT-15
RXF 393 = system: RXF 393
Hs-578T = system: Hs-578T
OVCAR-5 = system: OVCAR-5
SW-620 = system: SW-620

For `CCC(=O)OC1CCn2c1nc1c2C(=O)C(C)=C(N2CC2)C1=O` (stereo not drawn), the GI50 (HCC 2998) was 0.0615 µM (active), the GI50 (OVCAR-8) was 0.0678 µM (active) and the GI50 (OVCAR-3) was 0.067 µM (active). The GI50 (UACC-257) was 0.0711 µM (active), the GI50 (A549) was 0.115 µM (active) and the GI50 (ACHN) was 0.0895 µM (active). The GI50 (SN12C) was 0.0881 µM (active), the GI50 (Malme-3M) was 0.063 µM (active) and the GI50 (NCI-H226) was 0.111 µM (active). The GI50 (KM12) was 0.0938 µM (active), the GI50 (SF-295) was 0.0728 µM (active) and the GI50 (LOX IMVI) was 0.0771 µM (active). The GI50 (DU-145) was 0.00743 µM (active), the GI50 (NCI-H460) was 0.045 µM (active) and the GI50 (HOP-62) was 0.0697 µM (active). The GI50 (HCT-15) was 0.0275 µM, the GI50 (RXF 393) was 0.0565 µM (active) and the GI50 (Hs-578T) was 0.0455 µM (active). For the same compound, the GI50 (OVCAR-5) was 0.0902 µM (active) and the GI50 (SW-620) was 0.0488 µM (active).

For `C=C1COC(O)(C2OCOC(C3CC(=O)NC(=O)C3)C2O)C1C` (stereo not drawn), the GI50 (HCC 2998) was 0.00278 µM (active), the GI50 (OVCAR-8) was 0.00512 µM (active) and the GI50 (OVCAR-3) was 0.00356 µM (active). The GI50 (UACC-257) was 0.00802 µM (active), the GI50 (A549) was 0.00221 µM (active) and the GI50 (ACHN) was 0.00533 µM (active). For the same compound, the GI50 (SN12C) was 0.00224 µM (active), the GI50 (Malme-3M) was 0.00221 µM (active) and the GI50 (NCI-H226) was 0.00619 µM (active). The GI50 (KM12) was 0.00287 µM (active), the GI50 (SF-295) was 0.00305 µM (active) and the GI50 (LOX IMVI) was 0.00158 µM (active). For the same compound, the GI50 (DU-145) was 0.00361 µM (active), the GI50 (NCI-H460) was 0.00413 µM (active) and the GI50 (HOP-62) was 0.00622 µM (active). The GI50 (HCT-15) was 0.00478 µM, the GI50 (RXF 393) was 0.00404 µM (active) and the GI50 (Hs-578T) was 0.00629 µM (active). The GI50 (OVCAR-5) was < 0.0126 µM (active) and the GI50 (SW-620) was 0.0043 µM (active).

With `COc1ccc(OC)c(C[P+](c2ccccc2)(c2ccccc2)c2ccccc2)c1` the GI50 (HCC 2998) was 3.54 µM (inactive), the GI50 (OVCAR-8) was 2.08 µM (inactive) and the GI50 (OVCAR-3) was 2.54 µM (inactive). For the same compound, the GI50 (UACC-257) was 0.656 µM (active), the GI50 (A549) was 3.56 µM (inactive) and the GI50 (ACHN) was 4.8 µM (inactive). For the same compound, the GI50 (SN12C) was 5.89 µM (inactive), the GI50 (Malme-3M) was 5.56 µM (inactive) and the GI50 (NCI-H226) was 4.84 µM (inactive). For the same compound, the GI50 (KM12) was 1.11 µM (active), the GI50 (SF-295) was 3.96 µM (inactive) and the GI50 (LOX IMVI) was 0.968 µM (active). For the same compound, the GI50 (DU-145) was 3.27 µM (inactive), the GI50 (NCI-H460) was 3.84 µM (inactive) and the GI50 (HOP-62) was 3.77 µM (inactive). For the same compound, the GI50 (HCT-15) was 18.5 µM, the GI50 (RXF 393) was 4.68 µM (inactive) and the GI50 (Hs-578T) was 2.01 µM (inactive). The GI50 (OVCAR-5) was 5.27 µM (inactive) and the GI50 (SW-620) was 2.61 µM (inactive).

`CCCCc1ccc(Nc2nc(OC)c3ncn(C4CC(O)C(CO)O4)c3n2)cc1` (stereo not drawn) was tested, and the GI50 (HCC 2998) was 6.44 µM (inactive), the GI50 (OVCAR-8) was 16.4 µM (inactive) and the GI50 (OVCAR-3) was 22.4 µM (inactive). The GI50 (UACC-257) was 17.7 µM (inactive), the GI50 (A549) was 16.8 µM (inactive) and the GI50 (ACHN) was 16.4 µM (inactive). For the same compound, the GI50 (SN12C) was 13.3 µM (inactive), the GI50 (Malme-3M) was 20.7 µM (inactive) and the GI50 (NCI-H226) was 19.4 µM (inactive). The GI50 (KM12) was 16.5 µM (inactive), the GI50 (SF-295) was 18.5 µM (inactive) and the GI50 (LOX IMVI) was 12.1 µM (inactive). The GI50 (DU-145) was 19.6 µM (inactive), the GI50 (NCI-H460) was 16.4 µM (inactive) and the GI50 (HOP-62) was 34 µM (inactive). For the same compound, the GI50 (HCT-15) was 13.9 µM, the GI50 (RXF 393) was 14.8 µM (inactive) and the GI50 (Hs-578T) was 18.4 µM (inactive). The GI50 (OVCAR-5) was 35.4 µM (inactive) and the GI50 (SW-620) was 19.7 µM (inactive).

With `CC(=O)OC1C2CCC3CC2C2(SCCS2)C31` (stereo not drawn) the GI50 (HCC 2998) was > 100 µM (inactive), the GI50 (OVCAR-8) was > 100 µM (inactive) and the GI50 (OVCAR-3) was > 100 µM (inactive). For the same compound, the GI50 (UACC-257) was > 100 µM (inactive), the GI50 (A549) was > 100 µM (inactive) and the GI50 (ACHN) was > 100 µM (inactive). The GI50 (SN12C) was > 100 µM (inactive), the GI50 (Malme-3M) was > 100 µM (inactive) and the GI50 (NCI-H226) was > 100 µM (inactive). For the same compound, the GI50 (KM12) was > 100 µM (inactive), the GI50 (SF-295) was > 100 µM (inactive) and the GI50 (LOX IMVI) was > 100 µM (inactive). The GI50 (DU-145) was > 100 µM (inactive), the GI50 (NCI-H460) was > 100 µM (inactive) and the GI50 (HOP-62) was 87.7 µM (inactive). For the same compound, the GI50 (HCT-15) was > 100 µM, the GI50 (RXF 393) was > 100 µM (inactive) and the GI50 (Hs-578T) was > 100 µM (inactive). The GI50 (OVCAR-5) was > 100 µM (inactive) and the GI50 (SW-620) was > 100 µM (inactive).

With `O=c1oc2ccccc2cc1-c1nc2ccc([N+](=O)[O-])cc2o1` the GI50 (HCC 2998) was > 100 µM (inactive), the GI50 (OVCAR-8) was > 100 µM (inactive) and the GI50 (OVCAR-3) was > 100 µM (inactive). For the same compound, the GI50 (UACC-257) was > 100 µM (inactive), the GI50 (A549) was > 100 µM (inactive) and the GI50 (ACHN) was 30.1 µM (inactive). For the same compound, the GI50 (SN12C) was > 100 µM (inactive), the GI50 (Malme-3M) was > 100 µM (inactive) and the GI50 (NCI-H226) was > 100 µM (inactive). For the same compound, the GI50 (KM12) was > 100 µM (inactive), the GI50 (SF-295) was 83.4 µM (inactive) and the GI50 (LOX IMVI) was > 100 µM (inactive). For the same compound, the GI50 (DU-145) was > 100 µM (inactive), the GI50 (NCI-H460) was > 100 µM (inactive) and the GI50 (HOP-62) was 28.1 µM (inactive). The GI50 (HCT-15) was > 100 µM, the GI50 (RXF 393) was > 100 µM (inactive) and the GI50 (Hs-578T) was 84.9 µM (inactive). The GI50 (SW-620) was > 100 µM (inactive).

In the case of `CCOC(=O)c1cc2c3c(c(C(C)=O)c(OC)c2[nH]1)N(C(=O)CC)CC3`, the GI50 (HCC 2998) was 23.4 µM (inactive), the GI50 (OVCAR-8) was 19.8 µM (inactive) and the GI50 (OVCAR-3) was 14.5 µM (inactive). For the same compound, the GI50 (UACC-257) was 19.4 µM (inactive), the GI50 (A549) was 14 µM (inactive) and the GI50 (SN12C) was 20.9 µM (inactive). The GI50 (Malme-3M) was 12.6 µM (inactive), the GI50 (NCI-H226) was 10.2 µM (inactive) and the GI50 (KM12) was 10.7 µM (inactive). The GI50 (SF-295) was 19.3 µM (inactive), the GI50 (LOX IMVI) was 14.6 µM (inactive) and the GI50 (DU-145) was 15.6 µM (inactive). The GI50 (NCI-H460) was 16.7 µM (inactive), the GI50 (HOP-62) was 25.1 µM (inactive) and the GI50 (HCT-15) was 16.5 µM. The GI50 (RXF 393) was 19.6 µM (inactive), the GI50 (Hs-578T) was 19.4 µM (inactive) and the GI50 (OVCAR-5) was 27.7 µM (inactive). The GI50 (SW-620) was 24.9 µM (inactive).

For `CC(=O)c1nc(C#N)c(N)o1`, the GI50 (HCC 2998) was > 100 µM (inactive), the GI50 (OVCAR-8) was > 100 µM (inactive) and the GI50 (OVCAR-3) was > 100 µM (inactive). The GI50 (UACC-257) was > 100 µM (inactive), the GI50 (A549) was > 100 µM (inactive) and the GI50 (ACHN) was > 100 µM (inactive). The GI50 (SN12C) was > 100 µM (inactive), the GI50 (Malme-3M) was > 100 µM (inactive) and the GI50 (NCI-H226) was > 100 µM (inactive). For the same compound, the GI50 (KM12) was > 100 µM (inactive), the GI50 (SF-295) was > 100 µM (inactive) and the GI50 (LOX IMVI) was > 100 µM (inactive). The GI50 (DU-145) was > 100 µM (inactive), the GI50 (NCI-H460) was > 100 µM (inactive) and the GI50 (HOP-62) was > 100 µM (inactive). For the same compound, the GI50 (HCT-15) was > 100 µM, the GI50 (RXF 393) was > 100 µM (inactive) and the GI50 (Hs-578T) was > 100 µM (inactive). The GI50 (OVCAR-5) was > 100 µM (inactive) and the GI50 (SW-620) was > 100 µM (inactive).
